According to patent publication US12297457B2, “Esophageal tissue and/or organoid compositions and methods of making same” (Children's Hospital Medical Center, priority 2017, dated 2025):

Tests used:
foregut spheroids = assay: Anterior-posterior patterning of foregut spheroids (qPCR, IF); format: cell-based, human; conditions: TGFβ inhibitor added during foregut induction; SB431542, 10 μM
Procedure: Confluent hPSC cultures were treated with Acutase (STEMCELL Technologies) to resuspend as single cells in mTeSR1 and Y-27632 (10 μM, Tocris) and plated on Matrigel. On the following day, differentiation into definitive endoderm was carried out as previously described (McCracken et al., 2014). Briefly, cells were treated with Activin A (100 ng mL-1, R&D systems, Minneapolis, Minn.) and BMP4 (50 ng mL-1, R&D systems) on the first day in RPMI 1640 media (Life Technologies). Cells in the following two days were treated with only Activin A (100 ng mL-1) in RPMI 1640 with increasing concentrations 0.2% and 2% of HyClone defined fetal bovine serum (dFBS, GE Healthcare Life Sciences).
For anterior foregut monolayer cultures, cells were treated for 3 days in Noggin (200 ng mL-1) in RPMI 1640 with 2% dFBS, with all-trans retinoic acid (2 μM, Sigma, St. Louis, Mo.) the 3rd day.
(§1) Alternately, for the generation of anterior foregut spheroids, from definitive endoderm, cells were treated with FGF4 (500 ng mL-1, R&D systems), Noggin (200 ng mL-1) for 3 days in RPMI 1640 with 2% dFBS. Additional factors were tested during this time (described in results), such as CHIR99021 (“chiron” or “chr”, 2 μM, Tocris), Wnt3a (500 ng mL-1, R&D systems), SB431542 (10 μM, Tocris), DEAB (10 μM, Sigma), and retinoic acid (2 μM).
Tissue cultures were fixed with 4% paraformaldehyde at either room temperature for 15 minutes, 4° C. for 2 hours for cryosectioning, or 4° C. overnight for paraffin embedding/sectioning and mouse embryos. For paraffin embedding and sectioning, following fixation, tissues were dehydrated and embedded into paraffin blocks. Afterwards, paraffin-sectioned slides were deparaffinized and subjected to antigen retrieval in 10 mM sodium citrate for 30 minutes prior to staining. For cryosectioning, tissues were thoroughly washed in PBS, left in 30% sucrose overnight, embedded in OCT compound (VWR), and sectioned at a thickness of 8 μm. Commonly, slides were then permeabilized with 0.5% TritonX-100 in PBS for 10 minutes, blocked in 5% normal donkey serum (Jackson ImmunoResearch) for 1 hour, and incubated in primary antibody overnight at 4° C. On the next day, slides were thoroughly washed in PBS, incubated in secondary antibody (at 1:500) for 1 hour, and then thoroughly washed again. For EdU visualization, Applicant used the Click-iT EdU Alexa Fluor 488 Imaging Kit (Invitrogen) prior to blocking. For wholemount immunofluorescence staining, embryos were placed in 100% methanol immediately after fixation. Embryos were then permeabilized with Dent's Bleach (4:1:1 MeOH:DMSO:30% H2O2) for 2 hours at room temperature, rehydrated with methanol washes, and blocked for several hours at room temperature to overnight at 4° C. Primary antibodies were applied and embryos incubated overnight at 4° C. Then, embryos were thoroughly washed in 0.1% TritonX-100 in PBS before incubating in secondary antibodies overnight at 4° C. Finally, embryos were washed again, dehydrated with methanol washes, and cleared with Murray's Clear (2:1 benzyl benzoate:benzyl alcohol, Sigma) at least 15 minutes prior to imaging. For a list of antibodies and dilutions used, please see Table 2.
Spheroid and organoids were harvested in total, including the embedding matrigel. Collagen plugs from the organotypic raft cultures were first removed from the transwell on day 14, and subsequently harvested in total. Total RNA was isolated using the NucleoSpin RNA kit (Macherey-Nagel) and reverse transcribed to cDNA using the SuperScript VILO cDNA synthesis kit (ThermoFisher Scientific). For qRT-PCR, Applicant used Quantitect SYBR-Green master mix (Qiagen) and ran the reaction on a QuantStudio 6 machine (ThermoFisher Scientific). For a list of primers used, please see Table 1.

AFG spheroids = assay: Dorsal-ventral patterning / respiratory induction of anterior foregut spheroids (qPCR, IF); format: cell-based, human
Procedure: as §1
Anterior foregut spheroids were transferred into 50 μL droplets of Matrigel, and are cultured for 3-58 days in the base (“Gut”) media of Advanced DMEM/F12 (ThermoFisher Scientific) supplemented with B27 supplement (1×, ThermoFisher Scientific), N2 supplement (1×, ThermoFisher Scientific), HEPES (13 mM, ThermoFisher Scientific), L-Glutamine (2 mM ThermoFisher Scientific), penicillin/streptomycin (1×, ThermoFisher Scientific), and EGF (100 ng mL^−1, R&D systems). In addition to this base media, the first three days were supplemented with Noggin (200 ng mL^−1), FGF10 (50 ng mL^−1), and CultureOne supplement (1×, ThermoFisher Scientific). […]
Spheroid and organoids were harvested in total, including the embedding matrigel. […] For qRT-PCR, Applicant used Quantitect SYBR-Green master mix (Qiagen) and ran the reaction on a QuantStudio 6 machine (ThermoFisher Scientific). […]

[1] = test system: anterior foregut (AFG) cultures; assay: Doxycycline-induced CDX2 in anterior foregut cultures (IF quantification); format: cell-based, human; conditions: AFG cultures treated for 1 day
Procedure: Human embryonic stem cell (hESC) line H1 (WA01, person) were purchased from WiCell. iPSC line iPS106 was generated in-house and approved by the institutional review board at CCHMC. All hPSCs were maintained on feeder-free cultures: cells were plated on hESC-qualified Matrigel (BD Biosciences, San Jose, Calif.) and maintained at 37° C. with 5% CO2 with daily replacement of mTeSR1 media (STEMCELL Technologies, Vancouver, Canada); cells were passaged routinely every 4 days using Dispase (STEMCELL Technologies). The HA-tagged SOX2, CDX2, or FANCA dox-inducible lines were generated by first cloning the human SOX2 ORF, CDX2 ORF, or FANCA ORF into pINDUCER20 (respectively) (Addgene #44012, Meerbrey et al., 2011). Next, lentivirus was generated with help of the Viral Vector Core Facility at CCHMC. The lentivirus for HA-SOX2 and CDX2 were transduced into hESCs with 2 μL of virus; these lines were maintained on selection with mTeSR1 and G418 (500 μg mL-1, ThermoFisher Scientific). The lentivirus for FANCA were transduced prior to the iPS106 line generation, as FANCA is required for maintenance of hPSC properties. The hESC H1 line (and transduced derivatives) was used in all experiments excluding Fanconi Anemia modeling in HEOs, which used the iPS106 line. […]

[2] = test system: Xenopus endoderm explants; assay: nkx2-1 in situ hybridization of Xenopus endoderm explants; format: cell-based, Xenopus laevis; conditions: sox2 morpholino knock down; explants analysed at stage NF35
Procedure: Xenopus laevis adults were purchased from the Nasco (Fort Atkinson, Wis.), and housed according to CCHMC IACUC protocols. Ovulation, in vitro fertilization, and de-jellying of embryos were performed as described (Sive et al., 2000). A mixture of previously validated Sox2 morpholinos (MOs; Van Raay et al., 2005) targeting the 5′UTR (Sox2-UTR MO) and the ATG start codon (Sox2-ATG MO) were injected at the 8-cell stage into each vegetal blastomere (2 ng total MO per blastomere, 8 ng total per embryo) to target endoderm. MOs were synthesized and purchased from GeneTools. Equal amount of control MO was used in control injections.
For Xenopus explant studies, stage NF20 foregut endoderm tissue was micro-dissected in 1×MBS (Modified Barth's Saline; Sive et al., 2000)+50 ug/mL gentamycin sulfate (MP Biochemicals), +4% Ficoll-400 (Sigma) and explants were then cultured in 0.5×MBS+0.1% Fatty Acid Free BSA (Fisher)+50 ug/mL gentamycin sulfate with or without the following concentrations of small molecules or recombinant proteins from stages […] (approximately 48 hours): 3.5 μM Bio (Tocris), 50 ng/mL recombinant human BMP4 (R&D systems).
In situ hybridization on mouse sections was performed by generating DIG-labeled probes from linearized mouse cDNA plasmids. […]

CDX2-induced HEOs = assay: Notch inhibition in CDX2-induced HEOs (qPCR, IF); format: cell-based, human; conditions: d58 HEOs
Procedure: Human embryonic stem cell (hESC) line H1 (WA01, person) were purchased from WiCell. iPSC line iPS106 was generated in-house and approved by the institutional review board at CCHMC. All hPSCs were maintained on feeder-free cultures: cells were plated on hESC-qualified Matrigel (BD Biosciences, San Jose, Calif.) and maintained at 37° C. with 5% CO2 with daily replacement of mTeSR1 media (STEMCELL Technologies, Vancouver, Canada); cells were passaged routinely every 4 days using Dispase (STEMCELL Technologies). The HA-tagged SOX2, CDX2, or FANCA dox-inducible lines were generated by first cloning the human SOX2 ORF, CDX2 ORF, or FANCA ORF into pINDUCER20 (respectively) (Addgene #44012, Meerbrey et al., 2011). Next, lentivirus was generated with help of the Viral Vector Core Facility at CCHMC. The lentivirus for HA-SOX2 and CDX2 were transduced into hESCs with 2 μL of virus; these lines were maintained on selection with mTeSR1 and G418 (500 μg mL-1, ThermoFisher Scientific). The lentivirus for FANCA were transduced prior to the iPS106 line generation, as FANCA is required for maintenance of hPSC properties. The hESC H1 line (and transduced derivatives) was used in all experiments excluding Fanconi Anemia modeling in HEOs, which used the iPS106 line.
For the generation of anterior foregut spheroids, from definitive endoderm, cells were treated with Wnt3a (500 ng mL-1, R&D systems) for 2 days, and FGF4 (500 ng mL-1, R&D systems), Noggin (200 ng mL-1) for 3 days in RPMI 1640 with 2% dFBS. Three-dimensional culture and differentiation of anterior foregut spheroids into human esophageal organoids were obtained as described above.
Tissue cultures were fixed with 4% paraformaldehyde at either room temperature for 15 minutes (for monolayer cultures), or 4° C. for overnight (for organoids). […]
Monolayer cultures and organoids were harvested in total, including the plated/embedding matrigel. […] For qRT-PCR, Applicant used Quantitect SYBR-Green master mix (Qiagen) and ran the reaction on a QuantStudio 6 machine (ThermoFisher Scientific).

[3] = test system: dorsally-patterned AFG spheroids; assay: Outgrowth of dorsally-patterned AFG spheroids into esophageal organoids; format: cell-based, human; conditions: added from day 6 to day 13
Procedure: Anterior foregut spheroids were transferred into 50 μL droplets of Matrigel, and are cultured for 3-58 days in the base (“Gut”) media of Advanced DMEM/F12 (ThermoFisher Scientific) supplemented with B27 supplement (1×, ThermoFisher Scientific), N2 supplement (1×, ThermoFisher Scientific), HEPES (13 mM, ThermoFisher Scientific), L-Glutamine (2 mM ThermoFisher Scientific), penicillin/streptomycin (1×, ThermoFisher Scientific), and EGF (100 ng mL^−1, R&D systems). In addition to this base media, the first three days were supplemented with Noggin (200 ng mL^−1), FGF10 (50 ng mL^−1), and CultureOne supplement (1×, ThermoFisher Scientific). FGF10 and CultureOne supplementation is continued until the end of the first week in three-dimensional culture. Media was replaced every 3-4 days. For EdU labeling, media was supplemented with EdU (10 μM Invitrogen) for a defined period of time, and was removed by washing with sterile PBS twice before replacing with media without EdU.

Molecule: NC(=O)c1ccc(-c2nc(-c3ccc4c(c3)OCO4)c(-c3ccccn3)[nH]2)cc1 [TGFβ inhibitor, SB431542, reference compound]
- posterior foregut markers (foregut spheroids): increase in posterior foregut markers
- upregulation of NKX2-1 on respiratory induction (AFG spheroids; TGFβ inhibitor added during foregut induction, day 9 spheroids): reduces upregulation of NKX2-1

Molecule: C[C@H]1c2cccc(O)c2C(=O)C2=C(O)[C@]3(O)C(=O)C(C(N)=O)=C(O)[C@@H](N(C)C)[C@@H]3[C@@H](O)[C@@H]21 [doxycycline, Doxycycline]
- doxycycline concentration at which CDX2 induction saturates [1]: 100 to 500 ng/mL

Molecule: O=C1Nc2cc(Br)ccc2/C1=C1/Nc2ccccc2/C1=N\O [Bio]
- nkx2-1 expression [2]: did not activate nkx2-1 expression

Molecule: C[C@H](NC(=O)Cc1cc(F)cc(F)c1)C(=O)N[C@H](C(=O)OC(C)(C)C)c1ccccc1 [DAPT]
- KRT5 expression (CDX2-induced HEOs; CDX2-induction plus DAPT): further downregulated
- KRT13 expression, effect added to CDX2-induction (CDX2-induced HEOs; CDX2-induction plus DAPT): does not appear to be a synergistic effect
- HESS (Notch target gene) expression (CDX2-induced HEOs; qPCR): downregulated

B1: FGF10: recombinant human FGF10 (protein, UniProt O15520 38-208, looked up)
Fibroblast growth factor 10: QALGQDMVSPEATNSSSSSFSSPSSAGRHVRSYNHLQGDVRWRKLFSFTKYFLKIEKNGKVSGTKKENCPYSILEITSVEIGVVAVKAINSNYYLAMNKKGKLYGSKEFNNDCKLKERIEENGYNTYASFNWQHNGRQMYVALNGKGAPRRGQKTRRKNTSAHFLPMVVHS
- efficiency of spheroid to organoid outgrowth [3]: improved efficiency of spheroid to organoid outgrowth
- patterning and differentiation into esophageal organoids ([3]; data not shown): did not affect

B2: Noggin: recombinant human Noggin, used to inhibit BMP signaling (protein, UniProt Q13253 28-232, looked up)
Noggin: QHYLHIRPAPSDNLPLVDLIEHPDPIFDPKEKDLNETLLRSLLGGHYDPGFMATSPPEDRPGGGGGAAGGAEDLAELDQLLRQRPSGAMPSEIKGLEFSEGLAQGKKQRLSKKLRRKLQMWLWSQTFCPVLYAWNDLGSRFWPRYVKVGSCFSKRSCSVPEGMVCKPSKSVHLTVLRWRCQRRGGQRCGWIPIQYPIISECKCSC
- dorsal-ventral marker expression (NKX2-1, SOX2, MNX1, KRT4, TP63) (AFG spheroids; day 6 AFG spheroids treated 3 days, analysed day 9): dorsalized spheroids, as marked by elevated levels of SOX2, MNX1, KRT4, and TP63
